Patent publication US20250353821A1, “BENZENE SULFONAMIDE THIAZOLE COMPOUNDS AND THEIR USE FOR THE TREATMENT OF CANCERS” (INSERM (INSTITUT NATIONAL DE LA SANTÉ ET DE LA RECHERCHE …, priority 2021, published 2025)
In brackets after ≈: the same amount, converted by molar mass.

Assays:
[1] = Pharmacokinetics in mice (half-life, AUC IV, AUC PO); assay type: in vivo; details: for half-life: mouse, in vivo, 1 mg/kg, head prints both IV and PO administration 1 mpk, read-out: T½ IV (min) (PO administration 1 mpk)
[2] = system: CHOP in A375 melanoma cells; test: CHOP induction (ER stress marker), western blot, A375; assay type: cell-based, human; parameters: key: −: No induction of CHOP; +: Induction of CHOP; ++: Significant induction of CHOP; +++: Strong induction of CHOP; details: A375 (serum free), 24 h
CHOP in Kyse 70 cells = test: CHOP induction (ER stress marker), western blot, Kyse70; assay type: cell-based, human; parameters: key: −: No induction of CHOP; +: Induction of CHOP; ++: Significant induction of CHOP; +++: Strong induction of CHOP; details: Kyse70 (serum free), 24 h
CHOP in SH10TC cells = test: CHOP induction (ER stress marker), western blot, SH10TC; assay type: cell-based, human; parameters: key: −: No induction of CHOP; +: Induction of CHOP; ++: Significant induction of CHOP; +++: Strong induction of CHOP; details: SH10TC (serum free), 24 or 48 h
CHOP in KATO III cells = test: CHOP induction (ER stress marker), western blot, Kato III; assay type: cell-based, human; parameters: key: −: No induction of CHOP; +: Induction of CHOP; ++: Significant induction of CHOP; +++: Strong induction of CHOP; details: Kato III (1% SVF), 24 or 48 h
A375 melanoma cells [3] = test: IC50 determination in A375 cells, blue trypan exclusion; assay type: cell-based, human; details: Homo sapiens, A-375; A375, serum free, 24 h
Aqueous solubility = assay type: physicochemical; details: aqueous medium (not further specified), read-out: Solublity
[4] = system: NCI-60 Human Tumor Cell Lines; test: DTP-NCI-60 Human Tumor Cell Lines screen, one-dose; assay type: cell-based; details: growth relative to no-drug control and time zero, 100 = no inhibition, 0 = no net growth, negative = lethality
[5] = Chemical stability in PBS/DMSO and aqueous HCl; assay type: physicochemical; details: 24 h
A375 melanoma cells [6] = test: Cell viability by cell counting, trypan blue exclusion method; assay type: cell-based; details: Homo sapiens, A-375, 48 h, percentage of cells alive relative to negative control DMSO (100%)
[7] = system: Normal human fibroblasts (FHN); test: In vitro toxicity test on normal human fibroblasts, 48 h; assay type: cell-based; details: concentration 10 times higher than its IC50, FIG. 2
[8] = system: normal human melanocytes (MHN); test: In vitro toxicity test on normal human melanocytes, 48 h; assay type: cell-based; details: concentration 10 times higher than its IC50, FIG. 2

Structure (SMILES)	AUC PO (min · ng/mL/mpk) [1] [min · ng/mL/mpk]	half-life [1] [min]	Induction of CHOP in comparison to control condition, A375 [2]	Induction of CHOP in comparison to control condition, Kyse70 (CHOP in Kyse 70 cells)	Induction of CHOP in comparison to control condition, SH10TC (CHOP in SH10TC cells)	Induction of CHOP in comparison to control condition, Kato III (CHOP in KATO III cells)	IC50 (A375 melanoma cells [3]) [µM]	solubility (Aqueous solubility) [µM]	Mean growth inhibition value (data from DTP-NCI60) [4]	chemical stability ([5]; PBS (pH 7.4), 20% DMSO)	chemical stability ([5]; PBS (pH 7.4), 20% DMSO, 80° C.)	chemical stability ([5]; aqueous HCl (0.1M))	AUC IV (min · ng/mL/mpk) [1] [min · ng/mL/mpk]	viability at 5 µM (A375 melanoma cells [6]; 5 μM) [%]	viability at 10 µM (A375 melanoma cells [6]; 10 μM) [%]	toxicity in normal human fibroblasts [7]	toxicity in normal human melanocytes [8]
CCCCCc1ccc(S(=O)(=O)Nc2cc(-c3csc(NC(=O)CN4CCN(C)CC4)n3)ccc2OC)cc1 [PB691, N-(4-(4-methoxy-3-((4-pentylphenyl)sulfonamido)phenyl)thiazol-2-yl)-2-(4-methylpiperazin-1-yl)acetamide]	6266	77	+	++	−	+	1.7										
CCCCCc1ccc(S(=O)(=O)Nc2cc(-c3csc(NC(=O)CN4CCN(C)CC4)n3)ccc2N2CCN(C)CC2)cc1 [PB696, 2-(4-methylpiperazin-1-yl)-N-(4-(4-(4-methylpiperazin-1-yl)-3-((4-pentylphenyl)sulfonamido)phenyl)thiazol-2-yl)acetamide]		312	+	−	++	+	0.9	49 ± 16 (≈ 31.4 µg/mL)									
CCCCCc1ccc(S(=O)(=O)N(C(C)=O)c2cccc(-c3csc(N(CCN4CCN(C)CC4)C(C)=O)n3)c2)cc1 [PB705, N-(2-(4-methylpiperazin-1-yl)ethyl)-N-(4-(3-(N-((4-pentylphenyl)sulfonyl)acetamido)phenyl)thiazol-2-yl)acetamide]			++			++	1.3		5.64								
CCCCCc1ccc(S(=O)(=O)Nc2cccc(-c3csc(NC(=O)CCCCCN4CCN(CCO)CC4)n3)c2)cc1 [PB695, 6-(4-(2-hydroxyethyl)piperazin-1-yl)-N-(4-(3-((4-pentylphenyl)sulfonamido)phenyl)thiazol-2-yl)hexanamide]			+	+	++	−	0.6										
CCCCCc1ccc(S(=O)(=O)Nc2cccc(-c3csc(NCCN4CCN(C)CC4)n3)c2)cc1 [PB704, N-(3-(2-((2-(4-methylpiperazin-1-yl)ethyl)amino)thiazol-4-yl)phenyl)-4-pentylbenzenesulfonamide]	4435		++	+	−	+	1.2	1.4 ± 0.3 (≈ 0.739 µg/mL)	55.54	full stability	full stability	full stability	197707				
CCCCCc1ccc(S(=O)(=O)Nc2cccc(-c3csc(NC(=O)CN4CCN(CCO)CC4)n3)c2)cc1 [PB689, 2-(4-(2-hydroxyethyl)piperazin-1-yl)-N-(4-(3-((4-pentylphenyl)sulfonamido)phenyl)thiazol-2-yl)acetamide]		110	+	+	+++	++	1.3										
CCCCCc1ccc(S(=O)(=O)Nc2cccc(-c3csc(NC(=O)CN4CCN(C)CC4)n3)c2)cc1 [PB688, 2-(4-methylpiperazin-1-yl)-N-(4-(3-((4-pentylphenyl)sulfonamido)phenyl)thiazol-2 yl)acetamide]	3000	76	+++	+++	++	+	1	17 ± 7 (≈ 9.21 µg/mL)					112348				
CC(=O)NCCCCCC(=O)Nc1nc(-c2cccc(NS(=O)(=O)c3cccc4c(N(C)C)cccc34)c2)cs1 [PB628, 6-acetamido-N-(4-(3-((5-(dimethylamino)naphthalene)-1-sulfonamido)phenyl)thiazol-2-yl)hexanamide]														25.2 ± 6.1	12.5 ± 6.7	no toxicity	no toxicity
CCCCCc1ccc(S(=O)(=O)Nc2cccc(-c3csc(NC(=O)CCCCCN4CCN(C)CC4)n3)c2)cc1 [PB694, 6-(4-methylpiperazin-1-yl)-N-(4-(3-((4-pentylphenyl)sulfonamido)phenyl)thiazol-2-yl)hexanamide]			+	++	++	+	0.75		37.26								
CCCCCc1ccc(S(=O)(=O)Nc2cc(-c3csc(NC(=O)CN4CCN(CCO)CC4)n3)ccc2OC)cc1 [PB692, 2-(4-(2-hydroxyethyl)piperazin-1-yl)-N-(4-(4-methoxy-3-((4-pentylphenyl)sulfonamido)phenyl)thiazol-2-yl)acetamide]	3978		+	+	+	+	1.6	7 ± 5 (≈ 4.21 µg/mL)	23.99				488474				
